Data reported in paper PMC3759421, “Blocking Plasmodium falciparum Development via Dual Inhibition of Hemoglobin Degradation and the Ubiquitin Proteasome System by MG132” (PLoS ONE, 2013).
Peptide text beside a SMILES is read from it. * marks the point of attachment. Cbz = O=C(OCc1ccccc1)*

Tests used:
falcipain-2 (FP2) [1] = molecular target: T1, falcipain-2 (FP2) (Plasmodium falciparum, UniProt Q8I6U4); assay: biochemical; conditions: read-out: FP2
T1 construct: gene FP2A; carboxy-terminus region of the prodomain (36 amino acid residues) and the entire mature protease domain
Description: recombinant enzyme inhibition, Z-LR-AMC hydrolysis progress curves (association rate constant); active site titration on falcipain-2 (FP2) | Concentrations of active FP2 and FP3 were determined by active site titration using E64

falcipain-3 (FP3) [2] = molecular target: T2, falcipain-3 (FP3) (Plasmodium falciparum, UniProt Q8IIL0); assay: recombinant enzyme inhibition, Z-LR-AMC hydrolysis progress curves (association rate constant); active site titration; assay type: biochemical; conditions: read-out: FP3
T2 construct: carboxy-terminus region of the prodomain (35 amino acid residues) and the entire mature protease domain
Text: recombinant enzyme inhibition, Z-LR-AMC hydrolysis progress curves (association rate constant); active site titration on falcipain-3 (FP3) | MG132 and E64 inhibited hydrolysis of Z-LR-AMC by both enzymes (Figure 4B)

falcipain-3 (FP3) [3] = molecular target: T2, falcipain-3 (FP3); assay: recombinant enzyme inhibition, Z-LR-AMC hydrolysis progress curves (association rate constant); assay type: biochemical; conditions: read-out: FP3
Text: recombinant enzyme inhibition, Z-LR-AMC hydrolysis progress curves (association rate constant) on falcipain-3 (FP3) | MG132 and E64 inhibited hydrolysis of Z-LR-AMC by both enzymes (Figure 4B), confirming that MG132 is a falcipain inhibitor

falcipain-2 (FP2) [4] = molecular target: T1, falcipain-2 (FP2); assay: as above; assay type: biochemical; conditions: read-out: FP2

T2 sequence (Q8IIL0 208-492): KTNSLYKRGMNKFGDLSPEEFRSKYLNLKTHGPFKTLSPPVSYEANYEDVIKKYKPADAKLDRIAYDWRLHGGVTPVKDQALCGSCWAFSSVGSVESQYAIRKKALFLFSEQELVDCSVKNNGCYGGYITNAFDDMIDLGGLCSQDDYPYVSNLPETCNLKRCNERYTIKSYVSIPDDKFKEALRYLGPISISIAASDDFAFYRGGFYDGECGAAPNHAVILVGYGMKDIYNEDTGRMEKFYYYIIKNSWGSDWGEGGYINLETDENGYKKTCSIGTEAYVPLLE
T1 sequence (Q8I6U4 208-484): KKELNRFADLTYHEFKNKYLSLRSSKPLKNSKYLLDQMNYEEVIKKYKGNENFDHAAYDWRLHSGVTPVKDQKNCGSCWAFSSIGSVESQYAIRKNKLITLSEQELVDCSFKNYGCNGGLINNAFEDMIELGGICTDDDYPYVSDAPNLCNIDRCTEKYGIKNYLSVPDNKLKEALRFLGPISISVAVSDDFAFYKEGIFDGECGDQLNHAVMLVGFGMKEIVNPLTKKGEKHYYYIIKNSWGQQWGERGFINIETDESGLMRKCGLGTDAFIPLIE

SMILES	kon (falcipain-2 (FP2) [1])	kon (falcipain-3 (FP3) [2])	kon (falcipain-3 (FP3) [3])	kon (falcipain-2 (FP2) [4])
CC(C)C[C@H](NC(=O)[C@H]1O[C@@H]1C(=O)O)C(=O)NCCCCN=C(N)N [E64, L-trans-epoxysuccinyl-leucyl-amido(4-guanidino)butane]	10300 M⁻¹ s⁻¹	4090 M⁻¹ s⁻¹	–	–
CC(C)C[C@@H](C=O)NC(=O)[C@H](CC(C)C)NC(=O)[C@H](CC(C)C)NC(=O)OCc1ccccc1 [MG132] (Cbz-Leu-Leu-Leu-aldehyde)	–	–	412000 M⁻¹ s⁻¹	189000 M⁻¹ s⁻¹
